From patent publication US20240374587A1, “MEDICINE FOR PREVENTION AND TREATMENT OF DISEASES LINKED TO ANTI-OBESITY ACTIVITY” (Shionogi & Co., Ltd., priority 2021, published 2024)
pIC50: −log10 of the molar value.

What was measured:
human MGAT2 = human MGAT2 (Homo sapiens (Human), UniProt Q3SYC2); test: Measurement of human MGAT2 inhibitory activity; format: biochemical; settings: concentration exhibiting 50% enzyme inhibition
Protocol: Solutions of the compounds of the present invention in DMSO were each aliquoted into 0.2·μL portions in a 384-well polystyrene microplate produced by Corning Incorporated, and 5 μL of an enzyme solution prepared with an assay buffer (100 mmol/L phosphate buffer (pH 7.4) containing 2 mmol/L DTT) and 5 μL of a substrate solution (100 mmol/L phosphate buffer (pH 7.4), 30 μmol/L 2-Oleoylglycerol, 10 μmol/L Oleoyl-CoA) were added thereto, and the resultant was stirred and centrifuged, and incubated in a moist chamber at room temperature for 1 hour. After enzymatic reaction, 50 μL of a quenching solution (containing 0.2 μmol/L Diolein-d5, 0.4% formic acid, and 50% isopropanol) containing Internal Standard (IS) was added to terminate the reaction, and the resultant was sealed in a plate produced by Shimadzu GLC Ltd., and then stirred and centrifuged, and measurement was performed by using an electrospray ionization method with a RapidFire360 and Agilent 6550 Q-TOF mass spectrometer. Diolein as a reaction product (P) of 2-Oleoylglycerol as the substrate and an ammonium adduct ion of the IS were detected, and the peak intensity ratio, P/IS, was calculated from the peak heights to evaluate the inhibitory activity. Inhibitory activities with/without addition of enzyme were defined as Control (+)/Control (−), respectively, and the respective % inhibitions were defined as 0% inhibition and 100% inhibition. The inhibitory activity was calculated from the formula below with TIBCO Spotfire (produced by TIBCO Software Inc.) with the peak intensity ratio, P/IS, at the time of addition of the compound of the present invention being as Sample: […]

C57BL/6j mice (DIO mice) = test: Anti-obesity effect test in DIO mice (body weight, food consumption); format: in vivo; design: concentration or dose not given beside the values; settings: for Rate of decrease in body weight relative to control group: at final administration (Day 0 to Day 35, once a day)
Protocol: The anti-obesity effect of the compound and/or agent according to the present invention was examined by using C57BL/6j mice (DIO mice) provided with a high-fat diet (TestDiet; 58Y1).
Five-week-old male C57BL/6j mice (CLEA Japan. Inc.) were purchased, and grown with feeding of a high-fat diet under 12-hour light-dark cycles for 4 weeks to produce DIO mice. A medium (0.5% HPMC and physiological saline) was administered once a day from 3 weeks before administration of the compound. Randomization was performed for grouping (n=9 to 10) on the basis of body weight and change in food consumption during the period of administration for conditioning. From Day 0 to Day 35, gavage of vehicle (0.5% HPMC and physiological saline) (hereinafter, Control group), gavage of Compound (A) according to the present invention (hereinafter, (A)-administration group), subcutaneous administration of GLP-1 formulation (liraglutide or semaglutide) as Compound (B) according to the present invention (hereinafter, (B)-administration group), or both (hereinafter, the combined administration group) were performed once a day. The GLP-1 formulation was formulated in an increasing dose, and liraglutide and semaglutide were administered at 4 to 20 μg/kg and:3 to 15 μg/kg, respectively, once a day. During the administration period, daily body weight measurement and food consumption measurement once a week were performed.

Sequence of human MGAT2 (Q3SYC2 whole entry): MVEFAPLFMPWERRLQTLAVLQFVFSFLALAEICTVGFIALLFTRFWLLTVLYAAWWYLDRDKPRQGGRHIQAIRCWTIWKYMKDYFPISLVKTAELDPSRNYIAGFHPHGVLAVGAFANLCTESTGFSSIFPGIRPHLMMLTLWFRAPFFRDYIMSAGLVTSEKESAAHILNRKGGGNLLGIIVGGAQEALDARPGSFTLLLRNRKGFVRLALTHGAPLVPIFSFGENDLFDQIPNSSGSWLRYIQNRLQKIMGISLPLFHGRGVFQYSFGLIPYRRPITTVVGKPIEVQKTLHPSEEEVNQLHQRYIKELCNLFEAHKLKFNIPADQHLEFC

Molecule	pIC50 (human MGAT2)	other results
CS(=O)(=O)CC(=O)Nc1c2c(nn1CCC1CC1)C[C@]1(CCc3cc(OCC(F)(F)F)ccc31)NC2=O [Compound I-008]	8.56	–
CS(=O)(=O)CC(=O)Nc1c2c(nn1-c1ccccn1)C[C@]1(CCc3cc(OCCCC(F)(F)F)ccc31)NC2=O [Compound I-023]	8.19	–
CS(=O)(=O)CC(=O)Nc1c2c(nn1-c1ccccc1)C[C@]1(CCc3cc(OCCCC(F)(F)F)ccc31)NC2=O [Compound I-034]	7.74	–
CS(=O)(=O)CC(=O)Nc1c2c(nn1-c1ccc(C#N)cn1)C[C@]1(CCc3cc(OCC(F)(F)F)ccc31)NC2=O [Compound I-190]	8.54	–
CS(=O)(=O)CC(=O)Nc1c2c(nn1CCCC(F)(F)F)C[C@@]1(CCc3cc(OCC(F)(F)F)ccc31)NC2=O [Compound I-212]	8.16	–
Cc1ccc(-n2nc3c(c2NC(=O)CS(C)(=O)=O)C(=O)N[C@@]2(CCc4cc(OCC(F)(F)F)ccc42)C3)nc1 [Compound I-236]	8.55	–
CS(=O)(=O)CC(=O)Nc1c2c(nn1CCCOC(F)(F)F)C[C@]1(CCc3cc(OCC(F)(F)F)ccc31)NC2=O [Compound I-253]	8.85	–
Cc1ccc(-n2nc3c(c2NC(=O)CS(C)(=O)=O)C(=O)N[C@@]2(CCOc4cc(OCC(F)(F)F)ccc42)C3)nc1 [Compound I-275]	8.70	–
CS(=O)(=O)CC(=O)Nc1c2c(nn1CCCOC(F)(F)F)C[C@@]1(CCc3cc(OCC(F)(F)F)cc(F)c31)NC2=O [II-093]	8.92	–
Cc1ccc(-n2nc3c(c2NC(=O)CS(C)(=O)=O)C(=O)N[C@@]2(CCc4cc(OCCCC(F)(F)F)ccc42)C3)nn1 [II-103]	8.79	–
Cc1ccc(-n2nc3c(c2NC(=O)CS(C)(=O)=O)C(=O)N[C@@]2(CCOc4cc(OCC(C)(F)F)ccc42)C3)nc1 [II-151]	8.69	–
Cc1ccc(-n2nc3c(c2NC(=O)CS(C)(=O)=O)C(=O)N[C@@]2(CCOc4cc(C5CC5)ccc42)C3)nc1 [II-168]	8.73	–
CS(=O)(=O)CC(=O)Nc1c2c(nn1-c1ccc(C(F)F)cc1)C[C@]1(CCc3cc(OCC(F)(F)F)ccc31)NC2=O [II-174]	8.67	–
Cc1ccc(-n2nc3c(c2NC(=O)CS(C)(=O)=O)C(=O)N[C@@]2(CCOc4cc(F)cc(F)c42)C3)nc1 [II-203]	8.53	–
CS(=O)(=O)CC(=O)Nc1c2c(nn1-c1ccc(F)c(F)c1)C[C@]1(CCOc3cc(CCC(F)(F)F)ccc31)NC2=O [II-225]	8.94	–
Cc1cc(-n2nc3c(c2NC(=O)CS(C)(=O)=O)C(=O)N[C@@]2(CCOc4cc(OCCCC(F)(F)F)ccc42)C3)no1 [II-233]	9.66	–
CS(=O)(=O)CC(=O)Nc1c2c(nn1-c1ccc(F)cn1)C[C@]1(CCOc3cc(OCC(F)(F)F)ccc31)NC2=O [II-295]	> 9.00	–
Cc1ccc(-c2nn3c(c2NC(=O)CS(C)(=O)=O)C(=O)N[C@@]2(CCc4cc(OCC(F)(F)F)ccc42)C3)nc1 [I′-006]	8.65	–
Cc1ccc(-c2nn3c(c2NC(=O)CS(C)(=O)=O)C(=O)N[C@@]2(CCc4cc(OCC(F)(F)F)ccc42)C3)cc1 [I′-020]	8.71	–
CS(=O)(=O)CC(=O)Nc1c(-c2ccc(F)c(F)c2)nn2c1C(=O)N[C@@]1(CCc3cc(OCC(F)(F)F)ccc31)C2 [I′-033]	9.14	–
CS(=O)(=O)CC(=O)Nc1c(CCC2CC2)nn2c1C(=O)N[C@@]1(CCc3cc(OCC(F)(F)F)ccc31)C2 [I′-046]	8.93	–

Molecule	pIC50 (human MGAT2)	other results
CS(=O)(=O)CC(=O)Nc1c(CCC(F)(F)F)nn2c1C(=O)N[C@@]1(CCc3cc(OCC(F)(F)F)ccc31)C2 [I′-058]	8.01	–
CS(=O)(=O)CC(=O)Nc1c(-c2ccc(F)cc2)nn2c1C(=O)N[C@@]1(CCOc3cc(OCC(F)(F)F)ccc31)C2 [I′-066]	9.07	–
CS(=O)(=O)CC(=O)Nc1c(-c2ccc(F)cc2)nn2c1C(=O)N[C@]1(CCc3cc(OCC(F)(F)F)ccc31)C2 [I′-079]	8.95	–
CCS(=O)(=O)CC(=O)Nc1c(-c2ccc(F)cn2)nn2c1C(=O)N[C@@]1(CCc3cc(F)cc(F)c31)C2 [I′-123]	8.07	–
Cc1ccc(-c2nn3c(c2NC(=O)CS(C)(=O)=O)C(=O)N[C@@]2(CCOc4cc(F)cc(F)c42)C3)nc1 [I′-124]	8.19	–
CS(=O)(=O)CC(=O)Nc1c(-c2ccc(F)c(F)c2)nn2c1C(=O)N[C@@]1(CCOc3cc(F)cc(F)c31)C2 [I′-126]	8.80	–
CS(=O)(=O)CC(=O)Nc1c(-c2ccc(F)c(F)c2)nn2c1C(=O)N[C@@]1(CCc3cc(F)cc(F)c31)C2 [I′-130]	8.35	–
CCOc1ccc2c(c1)OCC[C@]21Cn2nc(-c3ccc(F)c(F)c3)c(NC(=O)CS(C)(=O)=O)c2C(=O)N1 [I′-133]	8.86	–
CCS(=O)(=O)CC(=O)Nc1c(-c2ccc(C)cn2)nn2c1C(=O)N[C@@]1(CCOc3cc(F)cc(F)c31)C2 [I′-136]	8.30	–
CS(=O)(=O)CC(=O)Nc1c(-c2ccc(Cl)cn2)nn2c1C(=O)N[C@@]1(CCOc3cc(F)cc(F)c31)C2 [I′-137]	8.82	–
Cc1ccc(-c2nn3c(c2NC(=O)CS(C)(=O)=O)C(=O)N[C@@]2(CCc4cc(F)cc(F)c42)C3)nc1 [I′-139]	7.80	–
CS(=O)(=O)CC(=O)Nc1c(-c2ccc(C3CC3)cn2)nn2c1C(=O)N[C@@]1(CCc3cc(F)cc(F)c31)C2 [I′-141]	8.19	–
CS(=O)(=O)CC(=O)Nc1c(-c2ccc(Cl)cn2)nn2c1C(=O)N[C@@]1(CCc3cc(F)cc(F)c31)C2 [I′-142]	8.54	–
CS(=O)(=O)CC(=O)Nc1c(-c2ccc(C3CC3)cn2)nn2c1C(=O)N[C@@]1(CCOc3cc(F)cc(F)c31)C2 [I′-143]	8.46	–
CS(=O)(=O)CC(=O)Nc1c(-c2ccc(C(F)F)cc2)nn2c1C(=O)N[C@@]1(CCOc3cc(F)cc(F)c31)C2 [I′-145]	8.54	–
CS(=O)(=O)CC(=O)Nc1c(-c2ccc(Cl)cn2)nn2c1C(=O)N[C@]1(CCc3cc(F)cc(F)c31)C2 [I′-147]	8.46	–
CS(=O)(=O)CC(=O)Nc1c(-c2ccc(Cl)cn2)nn2c1C(=O)N[C@]1(CCOc3cc(F)cc(F)c31)C2 [I′-151]	8.27	–
CS(=O)(=O)CC(=O)Nc1c(-c2ccc(C(F)F)cn2)nn2c1C(=O)N[C@@]1(CCOc3cc(F)cc(F)c31)C2 [I′-153]	8.65	–
CCCCCCCCCCCCCCCC(=O)N[C@@H](CCC(=O)NCCCC[C@H](NC(=O)[C@H](C)NC(=O)[C@H](C)NC(=O)[C@H](CCC(N)=O)NC(=O)CNC(=O)[C@H](CCC(=O)O)NC(=O)[C@H](CC(C)C)NC(=O)[C@H](Cc1ccc(O)cc1)NC(=O)[C@H](CO)NC(=O)[C@H](CO)NC(=O)[C@@H](NC(=O)[C@H](CC(=O)O)NC(=O)[C@H](CO)NC(=O)[C@@H](NC(=O)[C@H](Cc1ccccc1)NC(=O)[C@@H](NC(=O)CNC(=O)[C@H](CCC(=O)O)NC(=O)[C@H](C)NC(=O)[C@@H](N)Cc1cnc[nH]1)[C@@H](C)O)[C@@H](C)O)C(C)C)C(=O)N[C@@H](CCC(=O)O)C(=O)N[C@@H](Cc1ccccc1)C(=O)N[C@H](C(=O)N[C@@H](C)C(=O)N[C@@H](Cc1c[nH]c2ccccc12)C(=O)N[C@@H](CC(C)C)C(=O)N[C@H](C(=O)N[C@@H](CCCNC(=N)N)C(=O)NCC(=O)N[C@@H](CCCNC(=N)N)C(=O)NCC(=O)O)C(C)C)[C@@H](C)CC)C(=O)O [Liraglutide, liraglutide, reference compound]	–	Rate of decrease in food consumption relative to control group (C57BL/6j mice (DIO mice); 1st week of administration, liraglutide study): 4.6%; Rate of decrease in food consumption relative to control group (C57BL/6j mice (DIO mice); 2nd week of administration, liraglutide study): 9.4%; Rate of decrease in food consumption relative to control group (C57BL/6j mice (DIO mice); 3rd week of administration, liraglutide study): 3.1%; Rate of decrease in food consumption relative to control group (C57BL/6j mice (DIO mice); 4th week of administration, liraglutide study): 2.4%; Rate of decrease in food consumption relative to control group (C57BL/6j mice (DIO mice); 5th week of administration, liraglutide study): 1.5%; Rate of decrease in body weight relative to control group (C57BL/6j mice (DIO mice); liraglutide study (FIG. 1)): 4.2%
semaglutide [reference compound]	–	Rate of decrease in food consumption relative to control group (C57BL/6j mice (DIO mice); 1st week of administration, semaglutide study): 8.5%; Rate of decrease in food consumption relative to control group (C57BL/6j mice (DIO mice); 2nd week of administration, semaglutide study): 33.1%; Rate of decrease in food consumption relative to control group (C57BL/6j mice (DIO mice); 3rd week of administration, semaglutide study): 18.2%; Rate of decrease in food consumption relative to control group (C57BL/6j mice (DIO mice); 4th week of administration, semaglutide study): 10.9%; Rate of decrease in food consumption relative to control group (C57BL/6j mice (DIO mice); 5th week of administration, semaglutide study): 6.0%; Rate of decrease in body weight relative to control group (C57BL/6j mice (DIO mice); semaglutide study (FIG. 2)): 18.0%
